Results as given in US5554359A, “Pigmentation enhancer and method” (priority 1994, dated 1996).

Tests used:
[1] = system: tyrosinase activity in human foreskin organ cultures; experiment: Tyrosinase activity in human foreskin organ cultures (tyrosine hydroxylase assay); format: cell-based; conditions: Table 2; 0.1 mM; 72 h; control 3.15 ± 0.1; triplicate ± s.d.
Method: At the time of surgical removal, human foreskins were placed on sterile gauze saturated with sterile IMDM medium (Iscove's modified Dulbecco's medium purchased from Irvine Scientific of Santa Ana, Calif.) for transportation from the Hospital nursery to the laboratory. The tissues were rinsed in sterile IMDM medium containing 500 U/ml penicillin and 500 μg/ml of streptomycin for 5 minutes. Under sterile conditions, an intradermal injection of medium was performed from the dermal side prior to dissection of the mucous membrane and lower dermis by scissors to make the thickness of skins equal. The foreskins were then cut into approximately 3 mm×3 mm squares and either frozen at -75° C. or placed in organ culture as described hereafter.
The organ culture medium was prepared from IMDM with glutamine supplemented with 20% horse serum, 5% fetal bovine serum, 100 U/ml penicillin, 100 μg/ml streptomycin and 3 mg/ml sodium bicarbonate. The serums were obtained from Hyclone Lab. Inc. of Logan Utah. Culture units were prepared by placing sterilized filters (AP20 025 00, Millipore) over sterilized support screens ([…] Swinnex filter support screens, Millipore) in the wells of 6-well tissue culture plates (Falcon 3046) with medium added to the wells such that the skin support screens floated and the filter absorbed the medium from beneath. The tissue samples were placed, epidermis up, on top of the saturated filters and incubated at 37° C. in a 5% CO2 humidified atmosphere. The medium was changed everyday. Harvested cultures were frozen at -75° C.
Tyrosinase activity in human skin organ cultures was determined by measuring the tyrosine hydroxylase activity of the enzyme. The assay measures the production of ^3 H2 O during the conversion of [^3 H]tyrosine to L-DOPA. Weighed skin preparations were incubated in 0.3 ml of a reaction mixture containing 0.01 mM of L-tyrosine, 5-6 uCi/ml of [^3 H]tyrosine and 0.1 mM L-DOPA in 0.1M of pH 6.8 phosphate buffer for 4 hours at 37° C. To terminate the reaction, 1 ml of phosphate buffer was added, the tubes vortexed, and 0.4 ml aliquots removed in triplicate and mixed with an equal volume of Norit SG activated charcoal (10% w/v, in 0.1N HCl). Following centrifugation at 2000×g for 10 min, the supernatants (0.5 ml) were placed in scintillation vials, scintillation fluid added, and vials counted in a TM Analytic 6895 scintillation counter equipped with a DPM processor.
Human foreskins were treated with the compounds shown in Table 1, placed in culture, and incubated for 72 hours. The skins were then assayed for tyrosinase activity with the tyrosine hydroxylase assay method as described herein.
The medium and compounds were changed daily. Tyrosinase activity was determined by measuring the tyrosine hydroxylase activity of the enzyme.
Human foreskin organ cultures were treated with the compounds listed in Table 3 for 3 days and tyrosinase activity determined as described herein. Theophylline was used at 1 mM.

[2] = system: melanin in human melanocytes; experiment: Melanin content in human melanocytes; format: cell-based; conditions: 48-hour exposure; IBMX
Method: (§1) The mouse melanoma cell lines used to study the effects of lysosomotropic agents herein were the Cloudman S91 cell line (ATCC no. CCL 53.1) and two subclones of this line developed in our laboratory, the amelanotic line, AM-7, and a melanotic line, MEL-11A. All melanoma cell lines were grown in Ham's F-10 nutrient medium supplemented with 10% horse serum, penicillin (100 units/ml), and streptomycin (100 μg/ml). The normal human melanocyte cell strains used in this study were derived from foreskins of either neonares or from boys 2-6 years old. Human melanocyte cultures were grown in Ham's F-10 nutrient medium supplemented with 10% horse serum, 5% fetal bovine serum (FBS), 32 nM TPA (12-O-tetradecanoylphorbol 13-acetate), 10^-4 M IBMX(3-isobutyl-1-methylxanthine), penicillin (100 units/ml), and streptomycin (100 μg/ml).
The amount of melanin in melanoma cells or in melanocytes was determined by incubating cell pellets in 2 ml of 1-N NaOH for 48 hours at 37° C. and then measuring the solubilized melanin at 400 nm.
Dose/response parameters for ammonium chloride action were determined. […] Since tyrosinase is the rate-limiting enzyme for melanin synthesis, the stimulation of this enzyme by ammonium chloride should lead to increased melanin content of stimulated cells. […] Ammonium chloride increased tyrosinase activity in melanocytes from white-skinned individuals twenty-fold within 24 hours and by this time melanin contents had increased two-fold. Two other lysosomotropic agents, monensin and nigericin, were tested for their effects on tyrosinase activity. […] Thus, lysosomotropic agents have the ability to stimulate tyrosinase activity and melanin production in human melanocytes derived from white-skinned individuals, and to reduce melanin production in melanocytes from black-skinned people.

[3] = system: tyrosinase activity in human melanocytes; experiment: Tyrosinase responses in human melanocytes (Table 6); format: cell-based
Method: as §1
(§2) To determine tyrosinase activity in situ in either melanoma cells or in human melanocyte cultures, the tyrosine hydroxylase activity of the enzyme was determined. Cells were seeded into 60-mm culture dishes at 2×10^5 cells/dish and allowed to attach overnight. The medium was then exchanged for the appropriate growth medium supplemented with 1 μCi/ml of [^3 H]tyrosine (L-ring-3,5-^3 H]-tyrosine, DuPont New England Nuclear), and with hormones, where indicated. Cells were grown in labeled medium for 24 hours, and at this time, the medium was removed and assayed for the presence of ^3 H2 O using the charcoal absorption method of Pomerantz. Tyrosinase activity in cell homogenates was determined by sonicating cell pellets in 0.1-M sodium phosphate buffer (pH 6.8) and then incubating 50-μl aliquots in 0.5 ml of a reaction mixture containing 0.1-mM tyrosine, 2 μCi/ml of [^3 H]tyrosine, 0.1-mM L-DOPA (dihydroxyphenylalanine), and 0.1 mM PMSF (phenylmethylsulfonyl fluoride) at 37° C. for 2 hours. Reactions were terminated by the addition of 1 ml of charcoal (10% w/v in 0.1-N HCl). Samples were centrifuged, and the supernatants removed for determination of the amount of ^3 H2 O produced.
Hormone responsiveness in human melanocyte cell cultures were examined (for these studies, melanocytes derived from skin type III were used). […] Tyrosinase activity and melanin content typically double with a 48-hour exposure to IBMX. […] The steroid hormones, for the most part, caused little, if any, change in tyrosinase activity at the concentrations used.

[4] = system: tyrosinase activity in mouse melanoma cells; experiment: Tyrosinase responses in mouse melanoma cells (Table 6); format: cell-based
Method: as §1
as §2, with “produced. […]” for “produced.”

[5] = system: melanin in human melanocytes; conditions: three days; melanocyte cultures; cited from earlier work
[6] = system: tyrosinase activity in mouse melanoma cells; conditions: Cloudman S91; cited from earlier work
tyrosinase mRNA = conditions: three days; melanocyte cultures; cited from earlier work
[7] = system: tyrosinase abundance in mouse melanoma cells; conditions: other studies; cited from earlier work
[8] = system: tyrosinase activity in mouse melanoma cells; conditions: e.g., 10^-5 M; footnote b of Table 6; cited from earlier work

Compound | Tyrosinase Activity [1] | melanin content [2] | Tyrosinase Activity ([3]; 48-hour exposure, IBMX) | activity at 100 µM ([3]; Homo sapiens, Melanocyte, Table 6, 10^-7 M except IBMX 10^-4 M, theophylline 1 mM, ammonium chloride 10 mM, A23187 not given, melanocytes from skin type III, read-out: Effect on Tyrosinase Activity, Human Melanocyte) | response of mouse melanoma cells ([4]; compounds that raise intracellular cAMP levels or MSH) | increase in melanin production [5] | mimicking of the MSH response [6] | change in amount of tyrosinase mRNA (tyrosinase mRNA) | tyrosinase activity correlates with enzyme abundance [7] | Effect on Tyrosinase Activity, Human Melanocyte ([3]; Table 6, 10^-7 M except IBMX 10^-4 M, theophylline 1 mM, ammonium chloride 10 mM, A23187 not given, melanocytes from skin type III) | Effect on Tyrosinase Activity, Mouse Melanoma ([4]; Table 6, 10^-7 M except IBMX 10^-4 M, theophylline 1 mM, ammonium chloride 10 mM, A23187 not given) | effect on tyrosine activity at higher concentrations [8]
CC(C)Cn1c(=O)n(C)c(=O)c2[nH]cnc21 [IBMX, 3-isobutyl-1-methylxanthine] | 7.03 ± 0.49 pmoles ^3 H2 O/hour/mg skin | double | double | 150 to 200% | respond vigorously | fourfold increase | mimicked | not accompanied by any increase | correlates with an increase in enzyme abundance |  |  | 
CC1=C(/C=C/C(C)=C/C=C/C(C)=C/C(=O)O)C(C)(C)CCC1 [Retinoic Acid, all-trans] |  |  |  |  |  |  |  |  |  | Inhibited | Inhibited | stimulate tyrosine activity
